Data as given in ChEMBL document CHEMBL1150436 (Bioorg Med Chem Lett, 1995).
pKi: −log10 of the molar value.

Tests used:
[1] = molecular target: T1, Serotonin 2 (5-HT2) receptor (Rattus norvegicus, UniProt P30994+P08909+P14842); experiment: Ability to displace [3H]ketanserin from serotonergic 5-hydroxytryptamine 2 receptor; format: protein assay
[2] = molecular target: T2, D(2) dopamine receptor (Rattus norvegicus, UniProt P61169); experiment: Ability to displace [3H]spiperone from D2 dopamine receptor isolated from the striata of male Wistar rats
[3] = molecular target: T3, 5-hydroxytryptamine receptor 1A (Rattus norvegicus, UniProt P19327); experiment: Ability to displace [3H]-8-OH-DPAT from serotonergic 5-hydroxytryptamine 1A receptor
T3 sequence (P19327 whole entry): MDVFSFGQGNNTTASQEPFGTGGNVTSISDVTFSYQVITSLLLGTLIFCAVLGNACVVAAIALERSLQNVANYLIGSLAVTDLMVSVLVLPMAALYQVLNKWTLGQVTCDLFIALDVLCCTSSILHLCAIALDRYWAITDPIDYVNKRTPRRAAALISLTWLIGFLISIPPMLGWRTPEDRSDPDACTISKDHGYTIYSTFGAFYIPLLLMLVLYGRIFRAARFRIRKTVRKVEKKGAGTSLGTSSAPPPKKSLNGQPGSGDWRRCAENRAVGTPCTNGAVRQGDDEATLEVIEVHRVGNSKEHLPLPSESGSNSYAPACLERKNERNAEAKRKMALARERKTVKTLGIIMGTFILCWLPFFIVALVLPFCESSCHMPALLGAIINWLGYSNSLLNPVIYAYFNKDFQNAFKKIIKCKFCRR

[4] = molecular target: T2, D(2) dopamine receptor; experiment: Compound was evaluated for its ability to displace [3H]spiperone from D2 dopamine receptor isolated from the striata of male Wistar rats
[5] = molecular target: T3, 5-hydroxytryptamine receptor 1A; experiment: Compound was evaluated for its ability to displace [3H]8-OH-DPAT from serotonergic 5-hydroxytryptamine 1A receptor
[6] = molecular target: T1, Serotonin 2 (5-HT2) receptor; experiment: Compound was evaluated for its ability to displace [3H]ketanserin from serotonergic 5-hydroxytryptamine 2 receptor; format: protein assay

T2 sequence (P61169 whole entry): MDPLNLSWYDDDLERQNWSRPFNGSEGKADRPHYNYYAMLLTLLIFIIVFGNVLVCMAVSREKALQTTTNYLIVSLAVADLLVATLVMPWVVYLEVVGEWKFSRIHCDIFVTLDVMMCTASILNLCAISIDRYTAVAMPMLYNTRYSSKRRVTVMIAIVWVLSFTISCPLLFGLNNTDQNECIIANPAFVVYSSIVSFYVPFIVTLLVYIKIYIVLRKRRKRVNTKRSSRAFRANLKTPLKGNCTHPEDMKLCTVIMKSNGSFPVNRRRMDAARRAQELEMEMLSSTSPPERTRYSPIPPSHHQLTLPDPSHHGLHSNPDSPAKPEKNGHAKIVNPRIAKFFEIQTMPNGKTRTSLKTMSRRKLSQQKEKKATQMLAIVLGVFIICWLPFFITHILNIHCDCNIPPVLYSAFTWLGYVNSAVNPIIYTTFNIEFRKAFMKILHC

| SMILES | Ki [1] [nM] | pKi [2] | pKi [3] | pKi [4] | pKi [5] | Ki [6] [nM] |
| --- | --- | --- | --- | --- | --- | --- |
| CCCCN1CCC[C@@H]1CNC(=O)c1cc(SC)cc2c1OCCN2C | 22 | 7.77 | 6.92 |  |  |  |
| CN1CCOc2c(C(=O)NC[C@@H]3CCCN3Cc3ccccc3)cc(Cl)cc21 | 420 | 6.51 | 6.66 |  |  |  |
| CCCCCCCCCN1CCC[C@@H]1CNC(=O)c1cc(Cl)cc2c1OCC(=O)N2C | > 1000 | < 6.00 | < 6.00 |  |  |  |
| CCN1CCC[C@@H]1CNC(=O)c1cc(Cl)cc2c1OCC2 | > 1000 | < 6.00 | < 6.00 |  |  |  |
| CCN1CCC[C@H]1CNC(=O)c1cc(Cl)cc2c1OCC2 | > 1000 | 8.19 | < 6.00 |  |  |  |
| CCN1CCC[C@H]1CNC(=O)c1cc(Cl)cc2c1OCCN2C | > 1000 | 7.80 | < 6.00 |  |  |  |
| CCCCCCCCCN1CCC[C@@H]1CNC(=O)c1cc(S(N)(=O)=O)ccc1OC | 3700 | 7.04 | 7.80 |  |  |  |
| CCCCN1CCC[C@H]1CNC(=O)c1cc(SC)cc2c1OCCN2C | 2100 | 8.44 | 7.72 |  |  |  |
| CCCCCCCCCN1CCC[C@H]1CNC(=O)c1cc(Cl)cc2c1OCC2 | > 1000 | < 6.00 | 6.24 |  |  |  |
| CCCCN1CCC[C@@H]1CNC(=O)c1cc(Cl)cc2c1OCC2 | 400 |  | 6.48 |  |  |  |
| CCCCN1CCCC1CNC(=O)c1cccc2c1OCCN2C (centres undefined) |  |  |  | 6.57 | 6.77 | 2200 |
| CN1CCOc2c(C(=O)NC[C@H]3CCCN3Cc3ccccc3)cc(Cl)cc21 | 99 | 6.68 | 7.68 |  |  |  |
| CCN1CCC[C@@H]1CNC(=O)c1cc(Cl)cc2c1OCCN2C | > 1000 | < 6.00 | < 6.00 |  |  |  |
| CCCCN1CCC[C@H]1CNC(=O)c1cc(Cl)cc2c1OCC2 | 3300 |  | 7.74 |  |  |  |
| CCCCCCCCCN1CCC[C@@H]1CNC(=O)c1cc(Cl)cc2c1OCCN2C |  |  |  | 6.16 | < 6.00 | > 1000 |
| CSc1cc(C(=O)NC[C@@H]2CCCN2Cc2ccccc2)c2c(c1)N(C)CCO2 | 550 | 6.57 | 6.06 |  |  |  |

| SMILES | Ki [1] [nM] | pKi [2] | pKi [3] | pKi [4] | pKi [5] | Ki [6] [nM] |
| --- | --- | --- | --- | --- | --- | --- |
| CCCCN1CCC[C@H]1CNC(=O)c1cc(S(N)(=O)=O)ccc1OC |  |  |  |  | 5.92 | > 1000 |
| CSc1cc(C(=O)NC[C@H]2CCCN2Cc2ccccc2)c2c(c1)N(C)CCO2 | 27 | 8.38 | 7.77 |  |  |  |
| CCCCN1CCC[C@@H]1CNC(=O)c1cc(S(N)(=O)=O)ccc1OC |  |  |  |  | 5.35 | > 1000 |
| CCCCCCCCCN1CCC[C@@H]1CNC(=O)c1cc(Cl)cc2c1OCC2 | > 1000 | 7.08 | 6.48 |  |  |  |
| CCN1CCC[C@@H]1CNC(=O)c1cc(Cl)cc2c1OCC(=O)N2C | > 1000 | < 6.00 | < 6.00 |  |  |  |
| CCN1CCC[C@H]1CNC(=O)c1cc(Cl)cc2c1OCC(=O)N2C | > 1000 | < 6.00 | < 6.00 |  |  |  |
| CCCCN1CCC[C@@H]1CNC(=O)c1cc(Cl)cc2c1OCCN2C |  |  |  | 6.20 | 6.37 |  |
| CN1CCOc2c(C(=O)NC[C@H]3CCCN3CCc3ccccc3)cc(Cl)cc21 | 1700 | 7.24 | 7.46 |  |  |  |
| CCCCN1CCCC1CNC(=O)c1cc(S(N)(=O)=O)cc2c1OCCN2C (centres undefined) |  |  |  | 6.17 | 6.35 | 3000 |
| CCCCCCCCCN1CCC[C@H]1CNC(=O)c1cc(S(N)(=O)=O)ccc1OC | 2300 | 6.74 | 7.09 |  |  |  |
| CN1CCOc2c(C(=O)NC[C@@H]3CCCN3CCc3ccccc3)cc(Cl)cc21 |  | 6.10 | 8.00 |  |  |  |
| CCCCN1CCC[C@@H]1CNC(=O)c1cc(Cl)cc2c1OCC(=O)N2C | > 1000 | < 6.00 | < 6.00 |  |  |  |
| CCCCN1CCC[C@H]1CNC(=O)c1cc(Cl)cc2c1OCCN2C |  |  |  | 7.92 | 7.47 |  |
| CCCCCCCCCN1CCC[C@H]1CNC(=O)c1cc(Cl)cc2c1OCCN2C |  |  |  | 6.12 | 6.55 | > 1000 |
| CCCCCCCCCN1CCC[C@H]1CNC(=O)c1cc(Cl)cc2c1OCC(=O)N2C | > 1000 | < 6.00 | < 6.00 |  |  |  |
| CCCCN1CCC[C@H]1CNC(=O)c1cc(Cl)cc2c1OCC(=O)N2C | > 1000 | < 6.00 | < 6.00 |  |  |  |
